One may read the IC50 as the concentration needed to halve the response being measured. A lower IC50 goes with inhibition by little substance.

In ChEMBL document CHEMBL1127758 (Bioorg Med Chem Lett, 1994) one finds IC50 data, which are given here for 40 compounds.

The target of assay [1] is cAMP-dependent protein kinase (PKA) (Homo sapiens, UniProt P22694+P17612+P22612).
Description: Inhibitory activity against cAMP-dependent protein kinase A was determined
Assay [2] is described as follows: Inhibitory activity against phosphorylase kinase was determined.
Assay [3] in a line: Inhibition of Ribosomal protein S6 kinase.
The target of assay [4] is Proto-oncogene tyrosine-protein kinase Src (Homo sapiens, UniProt P12931). The experiment in a line: Inhibition of Src tyrosine kinase.
The target in assay [5] is Epidermal growth factor receptor (Homo sapiens, UniProt P00533).
Description: Inhibitory activity against protein tyrosine kinase of Epidermal growth factor receptor was determined

A value given as a limit tells only on which side of the number the result lay.

Proto-oncogene tyrosine-protein kinase Src, sequence (P12931 2-536 limits assumed): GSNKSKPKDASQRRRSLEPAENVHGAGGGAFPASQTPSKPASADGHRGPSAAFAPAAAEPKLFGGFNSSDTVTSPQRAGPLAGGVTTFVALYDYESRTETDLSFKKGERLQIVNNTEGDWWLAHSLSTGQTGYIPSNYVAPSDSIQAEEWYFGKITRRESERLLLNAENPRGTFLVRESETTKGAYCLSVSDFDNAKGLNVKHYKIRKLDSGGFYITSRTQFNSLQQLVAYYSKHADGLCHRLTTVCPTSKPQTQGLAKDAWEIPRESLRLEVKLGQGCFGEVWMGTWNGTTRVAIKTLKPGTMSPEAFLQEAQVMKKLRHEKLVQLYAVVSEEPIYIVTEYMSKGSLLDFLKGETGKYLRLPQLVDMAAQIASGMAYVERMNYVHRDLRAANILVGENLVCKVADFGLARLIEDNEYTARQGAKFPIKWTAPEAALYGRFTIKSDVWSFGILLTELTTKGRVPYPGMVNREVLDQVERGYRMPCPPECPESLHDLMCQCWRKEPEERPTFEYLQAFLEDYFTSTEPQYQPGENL
Epidermal growth factor receptor, sequence (P00533 whole entry): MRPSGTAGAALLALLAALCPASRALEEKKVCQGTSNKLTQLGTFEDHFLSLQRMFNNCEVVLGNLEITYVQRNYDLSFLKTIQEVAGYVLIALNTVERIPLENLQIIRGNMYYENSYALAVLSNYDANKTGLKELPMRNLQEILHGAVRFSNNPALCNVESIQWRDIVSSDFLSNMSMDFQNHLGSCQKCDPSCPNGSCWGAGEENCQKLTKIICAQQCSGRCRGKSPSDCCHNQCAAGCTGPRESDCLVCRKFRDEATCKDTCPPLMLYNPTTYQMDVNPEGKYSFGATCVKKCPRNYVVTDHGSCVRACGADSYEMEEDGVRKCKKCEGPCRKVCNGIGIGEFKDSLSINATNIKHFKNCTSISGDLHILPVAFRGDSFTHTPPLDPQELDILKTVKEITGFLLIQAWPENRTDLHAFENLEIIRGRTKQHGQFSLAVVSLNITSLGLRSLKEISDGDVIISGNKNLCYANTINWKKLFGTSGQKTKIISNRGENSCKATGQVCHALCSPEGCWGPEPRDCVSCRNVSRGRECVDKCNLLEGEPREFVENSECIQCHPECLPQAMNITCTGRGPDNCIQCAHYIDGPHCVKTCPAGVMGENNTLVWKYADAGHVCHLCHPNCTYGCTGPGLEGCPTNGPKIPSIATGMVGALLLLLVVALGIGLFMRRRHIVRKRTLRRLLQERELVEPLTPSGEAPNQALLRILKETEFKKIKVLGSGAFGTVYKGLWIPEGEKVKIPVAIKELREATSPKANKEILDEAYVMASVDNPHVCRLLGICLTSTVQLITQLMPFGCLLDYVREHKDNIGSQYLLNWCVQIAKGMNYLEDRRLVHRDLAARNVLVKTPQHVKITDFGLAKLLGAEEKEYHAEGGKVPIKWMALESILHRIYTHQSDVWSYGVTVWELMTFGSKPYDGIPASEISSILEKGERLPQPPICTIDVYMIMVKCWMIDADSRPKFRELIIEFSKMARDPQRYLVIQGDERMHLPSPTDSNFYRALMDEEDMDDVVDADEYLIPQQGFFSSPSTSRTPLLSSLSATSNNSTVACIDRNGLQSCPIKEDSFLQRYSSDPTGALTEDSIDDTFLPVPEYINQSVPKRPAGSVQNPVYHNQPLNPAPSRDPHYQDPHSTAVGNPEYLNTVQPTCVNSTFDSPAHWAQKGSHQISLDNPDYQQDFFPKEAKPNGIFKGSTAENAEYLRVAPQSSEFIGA

`CN[C@H]1C[C@@H]2O[C@](C)([C@H]1OC)n1c3ccccc3c3c4c(c5c6ccccc6n2c5c31)[C@@H](O)NC4=O`: the results for the IC50 in assay [1] and in assay [2] were 3300 nM and 170 nM, respectively.

As for `CO[C@H]1[C@@H](N(C)C(=O)c2ccccc2)C[C@@H]2O[C@@]1(C)n1c3ccccc3c3c4c(c5c6ccccc6n2c5c31)C(=O)NC4=O`, the IC50 in assay [1] is 750 nM; in assay [2], 270 nM.

For the compound `CO[C@H]1[C@@H](N(C)C(=O)CNC(=O)OC(C)(C)C)C[C@@H]2O[C@@]1(C)n1c3ccccc3c3c4c(c5c6ccccc6n2c5c31)C(=O)NC4`, the IC50 is 2250 nM in assay [1], 200 nM in assay [3], 120 nM in assay [2] and 160 nM in assay [4].

Turning to `CO[C@H]1[C@@H](N(C)C(=O)CN)C[C@@H]2O[C@@]1(C)n1c3ccccc3c3c4c(c5c6ccccc6n2c5c31)C(=O)NC4`, the values for the IC50 in assay [1] and in assay [2] were 360 nM and 51 nM, respectively.

Turning to `CN[C@H]1C[C@@H]2O[C@](C)([C@H]1OC)n1c3ccccc3c3c4c(c5c6ccccc6n2c5c31)C(=O)NC4=O`, the figures for the IC50 in assay [1], in assay [2] and in assay [4] were 26 nM, 5 nM and 800 nM, respectively.

With `CN[C@H]1C[C@@H]2O[C@](C)([C@H]1OC)n1c3ccccc3c3c4c(c5c6ccccc6n2c5c31)[C@H](O)NC4=O`, the IC50 in assay [1] was 2250 nM; in assay [2] it was 22 nM.

On to `CO[C@H]1[C@@H](N(C)C(=O)c2ccccc2Cl)C[C@@H]2O[C@@]1(C)n1c3ccccc3c3c4c(c5c6ccccc6n2c5c31)C(=O)NC4`, for which the IC50 in assay [1] is 1500 nM; in assay [2], 78 nM.

As for `CO[C@H]1[C@@H](N(C)C(=O)CCC(=O)O)C[C@@H]2O[C@@]1(C)n1c3ccccc3c3c4c(c5c6ccccc6n2c5c31)C(=O)NC4`, the IC50 in assay [1] amounted to 700 nM; in assay [2], 62 nM; in assay [4], 200 nM.

`CO[C@H]1[C@@H]([N+](C)(C)C)C[C@@H]2O[C@@]1(C)n1c3ccccc3c3c4c(c5c6ccccc6n2c5c31)C(=O)NC4`: the IC50 stood at 68 nM in assay [1], 50 nM in assay [3] and 21 nM in assay [2].

For `CO[C@H]1[C@@H](N(C)CC(=O)O)C[C@@H]2O[C@@]1(C)n1c3ccccc3c3c4c(c5c6ccccc6n2c5c31)C(=O)NC4`, the IC50 in assay [1] was 140 nM; in assay [2], 15 nM.

In assay [2], `CN[C@H]1C[C@@H]2O[C@](C)([C@H]1OC)n1c3ccccc3c3c4c(c5c6ccccc6n2c5c31)C(=O)N[C@H]4O` returned an IC50 of 6 nM.

On to `CNC(=S)N(C)[C@H]1C[C@@H]2O[C@](C)([C@H]1OC)n1c3ccccc3c3c4c(c5c6ccccc6n2c5c31)C(=O)NC4`, for which the IC50 was 1600 nM in assay [1], 900 nM in assay [3], 10 nM in assay [2] and 12500 nM in assay [5].

With `COC(=O)N(C)[C@H]1C[C@@H]2O[C@](C)([C@H]1OC)n1c3ccccc3c3c4c(c5c6ccccc6n2c5c31)C(=O)NC4`, the IC50 in assay [1] was determined as 480 nM; in assay [2] it was 40 nM.

In assay [2], `CO[C@H]1[C@@H](N(C)C(=O)c2ccccc2)C[C@@H]2O[C@@]1(C)n1c3ccccc3c3c4c(c5c6ccccc6n2c5c31)C(=O)NC4` gave an IC50 of 48 nM.

In the case of `CO[C@H]1[C@@H](N(C)S(C)(=O)=O)C[C@@H]2O[C@@]1(C)n1c3ccccc3c3c4c(c5c6ccccc6n2c5c31)C(=O)NC4`, the figures for the concentration for half-maximal inhibition (IC50) in assay [1] and in assay [2] were 1000 nM and 19 nM, respectively.

Take `CCN(C)[C@H]1C[C@@H]2O[C@](C)([C@H]1OC)n1c3ccccc3c3c4c(c5c6ccccc6n2c5c31)C(=O)NC4`: the values for the IC50 in assay [1], in assay [2] and in assay [4] were 1600 nM, 70 nM and 240 nM, respectively.

As to `CO[C@H]1[C@@H](N(C)C(=O)c2ccc(C(=O)O)cc2)C[C@@H]2O[C@@]1(C)n1c3ccccc3c3c4c(c5c6ccccc6n2c5c31)C(=O)NC4`, the IC50 in assay [1] is 10000 nM; in assay [3] it was 100 nM; in assay [2] it was 30 nM.

As for `CO[C@H]1[C@@H](N(C)C(=O)c2cccc([N+](=O)[O-])c2)C[C@@H]2O[C@@]1(C)n1c3ccccc3c3c4c(c5c6ccccc6n2c5c31)C(=O)NC4`, the results for the IC50 in assay [1], in assay [3] and in assay [2] were 2500 nM, 100 nM and 60 nM, respectively.

`CO[C@H]1[C@@H](N(C)Cc2ccccc2)C[C@@H]2O[C@@]1(C)n1c3ccccc3c3c4c(c5c6ccccc6n2c5c31)C(=O)NC4`: the IC50 is 480 nM in assay [1] and 100 nM in assay [2].

In the case of `COC(=O)CN(C)[C@H]1C[C@@H]2O[C@](C)([C@H]1OC)n1c3ccccc3c3c4c(c5c6ccccc6n2c5c31)C(=O)NC4`, the IC50 in assay [1] was 3200 nM; in assay [2] it was 440 nM.

For the compound `CO[C@H]1[C@@H](N(C)C(=O)C(F)(F)F)C[C@@H]2O[C@@]1(C)n1c3ccccc3c3c4c(c5c6ccccc6n2c5c31)C(=O)NC4`, the IC50 was 17000 nM in assay [1], 100 nM in assay [3] and 10 nM in assay [2].

As to `COC(=O)CN1Cc2c(c3c4ccccc4n4c3c3c2c2ccccc2n3[C@]2(C)O[C@H]4C[C@H](N(C)C(=O)c3ccccc3)[C@@H]2OC)C1=O`, the IC50 in assay [1] is > 100000 nM; in assay [3] it was > 100000 nM; in assay [2] it was ~100000 nM.

For the compound `CO[C@H]1[C@@H](N(C)C(=O)c2ccc(Cl)cc2)C[C@@H]2O[C@@]1(C)n1c3ccccc3c3c4c(c5c6ccccc6n2c5c31)C(=O)NC4`, the figures for the IC50 in assay [1] and in assay [2] were 2600 nM and 320 nM, respectively.

`CO[C@H]1[C@@H](N(C)C(=O)c2ccccc2)C[C@@H]2O[C@@]1(C)n1c3ccccc3c3c4c(c5c6ccccc6n2c5c31)C(=O)N[C@@H]4O` had an IC50 in assay [2] of 35 nM.

Consider `CO[C@H]1[C@@H](N(C)C(=O)c2cccnc2)C[C@@H]2O[C@@]1(C)n1c3ccccc3c3c4c(c5c6ccccc6n2c5c31)C(=O)NC4`, for which the IC50 in assay [1] turned out to be 380 nM; in assay [2] it was 12 nM.

On to `CO[C@H]1[C@@H](N(C)CCC#N)C[C@@H]2O[C@@]1(C)n1c3ccccc3c3c4c(c5c6ccccc6n2c5c31)C(=O)NC4`, for which the IC50 in assay [1] stood at 1400 nM; in assay [2], 24 nM.

On to `CO[C@H]1[C@@H](N(C)C(=O)c2ccccc2)C[C@@H]2O[C@@]1(C)n1c3ccccc3c3c4c(c5c6ccccc6n2c5c31)C(=O)N(Cc1ccccc1)C4`, for which the IC50 in assay [1] is > 100000 nM; in assay [3], > 100000 nM; in assay [2], ~100000 nM.

For `CO[C@H]1[C@@H](N(C)OC(=O)C(C)(C)C)C[C@@H]2O[C@@]1(C)n1c3ccccc3c3c4c(c5c6ccccc6n2c5c31)C(=O)NC4=O`, the values for the IC50 in assay [1] and in assay [2] were > 100000 nM and 5250 nM, respectively.

Take `CO[C@H]1[C@@H](N(C)C(C)=O)C[C@@H]2O[C@@]1(C)n1c3ccccc3c3c4c(c5c6ccccc6n2c5c31)C(=O)NC4`: the IC50 amounted to 1500 nM in assay [1] and 10 nM in assay [2].

As for `CCCCC(O)CN(C)[C@H]1C[C@@H]2O[C@](C)([C@H]1OC)n1c3ccccc3c3c4c(c5c6ccccc6n2c5c31)C(=O)NC4` (some centres not stated), the half-inhibitory concentration (IC50) in assay [1] was 360 nM; in assay [2], 50 nM.

In assay [2], `CN[C@H]1C[C@@H]2O[C@](C)([C@H]1OC)n1c3ccccc3c3c4c(c5c6ccccc6n2c5c31)C(=O)N[C@@H]4O` registered an IC50 of 4 nM.

Turning to `CC[N+](C)(C)[C@H]1C[C@@H]2O[C@](C)([C@H]1OC)n1c3ccccc3c3c4c(c5c6ccccc6n2c5c31)C(=O)NC4`, the 50% inhibitory concentration (IC50) in assay [1] came out at 270 nM; in assay [2], 18 nM.

On to `CO[C@H]1[C@@H](N(C)C(=O)OC(C)(C)C)C[C@@H]2O[C@@]1(C)n1c3ccccc3c3c4c(c5c6ccccc6n2c5c31)C(=O)NC4`, for which the values for the IC50 in assay [1], in assay [3] and in assay [2] were 28000 nM, 1000 nM and 420 nM, respectively.

Take `COc1ccc(C(=O)N(C)[C@H]2C[C@@H]3O[C@](C)([C@H]2OC)n2c4ccccc4c4c5c(c6c7ccccc7n3c6c42)C(=O)NC5)cc1`: the IC50 amounted to 1500 nM in assay [1] and 130 nM in assay [2].

On to `COC(=O)c1ccc(C(=O)N(C)[C@H]2C[C@@H]3O[C@](C)([C@H]2OC)n2c4ccccc4c4c5c(c6c7ccccc7n3c6c42)C(=O)NC5)cc1`, for which the IC50 in assay [1] amounted to 3670 nM; in assay [2], 53 nM.

For the compound `CO[C@H]1[C@@H](N(C)C(=O)c2cc([N+](=O)[O-])cc([N+](=O)[O-])c2)C[C@@H]2O[C@@]1(C)n1c3ccccc3c3c4c(c5c6ccccc6n2c5c31)C(=O)NC4`, the half-inhibitory concentration (IC50) in assay [1] was > 100000 nM; in assay [3], 200 nM; in assay [2], 370 nM.

With `CO[C@H]1[C@@H](N(C)C(=O)c2cccc(Cl)c2)C[C@@H]2O[C@@]1(C)n1c3ccccc3c3c4c(c5c6ccccc6n2c5c31)C(=O)NC4`, the IC50 in assay [1] worked out at 6800 nM; in assay [2] it was 1900 nM.

Consider `CO[C@H]1[C@@H](N(C)c2ccccc2)C[C@@H]2O[C@@]1(C)n1c3ccccc3c3c4c(c5c6ccccc6n2c5c31)C(=O)NC4`, for which the IC50 in assay [1] worked out at 55 nM; in assay [2] it was 15 nM.

On to `CO[C@H]1[C@@H](N(C)C(=O)c2cnccn2)C[C@@H]2O[C@@]1(C)n1c3ccccc3c3c4c(c5c6ccccc6n2c5c31)C(=O)NC4`, for which the IC50 in assay [1] stood at 750 nM; in assay [2], 20 nM; in assay [5] it was 8180 nM.

For the compound `CO[C@H]1[C@@H](N(C)C(=O)C2CCCCC2)C[C@@H]2O[C@@]1(C)n1c3ccccc3c3c4c(c5c6ccccc6n2c5c31)C(=O)NC4`, the IC50 in assay [1] amounted to 1570 nM; in assay [2], 80 nM.
